# Test results from US20210270813A1, “KIT, METHOD FOR SCREENING AN ACTIVE COMPOUND IN VITRO AND USES OF A KIT” (L'OREAL, priority 2018, published 2021).
# Test system: neurites emerging from the neurospheres
# Assay: Maximum extension of neurites emerging from neurospheres in modified co-culture microdevice
# Assay type: cell-based, human
# Conditions: NGF added or not to the matrigel in the middle punched hole; 3N medium or 75% CM plus HEKn; FIG. 14C
# Description: Keratinocytes moved faster than the dendrites and since removing the microdevice sometimes meant that neurospheres were pulled from the substrate, a hole between the wells of the same pair was punched and the keratinocytes were placed within this hole (FIG. 13A, red arrow). The region where there was a predominance of migrating neurites was observed and the highest migration radius was measured (FIG. 13B, blue arrow).
# To further test this modified co-culture microdevice, the culture media (3N versus 75% CM from HEKn) and the presence (or not) of matrigel in the middle hole were compared by measuring the maximum extension of the neurites emerging from the neurospheres (FIG. 14A). There were no statistically significant differences. Then, the extension of neurites in the presence or absence of keratinocytes in the hole were compared. Again, no differences were observed (FIG. 14B). Finally, another variable was tested: adding NGF or not to the matrigel in the middle punched hole.
substance,measurement,value
nerve growth factor [NGF],maximum extension of the neurites (neurite migration),trend of NGF to increase migration
